Assay results: patent publication US9255090B2, “Heterocyclyl derivatives and their use as prostaglandin D2 receptor modulators” (Actelion Pharmaceuticals Ltd., priority 2012, dated 2016)
Structures can show the parent of a compound that is named as a salt.

target: hCRTH2 receptor (Homo sapiens (Human), UniProt Q9Y5Y4); test: hCRTH2 receptor membranes radioligand (3H-PGD2) displacement assay; assay type: binding; settings: 3H-PGD2 radioligand displacement, HEK293-hCRTH2 membranes
Method: Biological Assays: Preparation of hCRTH2 Receptor Membranes and Radioligand Displacement Assay:
First, recombinant HEK293-hCRTH2 cells were detached from culture plates into 5 ml buffer A/plate (Buffer A: 5 mM Tris, 1 mM MgCl2-6H2O pH=7.4) using a rubber policeman. Cells were then transferred into centrifugation tubes and centrifuged for 5 min at 400 g. The cell pellet was resuspended in the same buffer and tubes were frozen at −80° C. Cells were thawed and membrane fragments were generated by homogenization using a polytron homogenizer (30 seconds). The membrane fragments were then centrifuged at 3000 g for 20 minutes and resuspended in buffer C (Buffer C: 75 mM Tris, 25 mM MgCl2, 250 mM Saccharose pH 7.4). Aliquots of membrane fragments were stored at −20° C.
Binding assay was performed in a final assay volume of 250 μl. First, 25 μl of test compound, previously diluted in Binding-Buffer (Binding-Buffer: 50 mM Tris-Base, 100 mM NaCl, 1 mM EDTA, 0.1% BSA (protease free), 0.01% NaN3, 10 mM MnCl2, pH 7.0) was placed into each well. After addition of 75 μl Binding-Buffer, 50 μl of the radioligand ^3H-PGD2 (at 2.5 nM (220.000 dpm/well) from ANAWA ART0662) was added to each well. Binding assay was started by addition of 100 μl CRTH2 membrane fragments, reaching a final concentration of 20 μg/well. For non-specific binding, PGD2 was added to the reaction mixture to […] final concentration. This assay mix was incubated for 90 minutes at room temperature and then filtered through a GF/C filter 96-well plate which was pre-soaked for 3 hours in 0.5% polyethyleneimine (PEI). The filter-wells were washed three times with ice cold Binding-Buffer. Then, 40 μl of Microscint-40 (Packard) was added to each well and the retained radioactivity quantified in a Topcount (Packard).

Chain of hCRTH2 receptor (Q9Y5Y4 whole entry): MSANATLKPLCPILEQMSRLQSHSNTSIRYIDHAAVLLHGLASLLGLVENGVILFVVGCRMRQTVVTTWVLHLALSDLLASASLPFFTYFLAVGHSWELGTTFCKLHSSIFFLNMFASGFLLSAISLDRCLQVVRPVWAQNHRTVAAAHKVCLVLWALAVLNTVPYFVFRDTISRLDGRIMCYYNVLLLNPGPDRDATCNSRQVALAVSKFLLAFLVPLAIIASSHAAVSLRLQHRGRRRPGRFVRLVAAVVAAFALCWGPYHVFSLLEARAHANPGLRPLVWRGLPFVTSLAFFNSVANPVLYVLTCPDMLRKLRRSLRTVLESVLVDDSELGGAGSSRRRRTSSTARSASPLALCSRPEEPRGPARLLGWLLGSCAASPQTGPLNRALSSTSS

SMILES	IC50 [µM]
COc1ccc(CC(=O)O)cc1-c1ccc(F)c2c1CN(C(=O)[C@@H]1C[C@H]1c1ccc(Cl)cc1)CC2 (racemic) [Example 2, (±)-(3-{2-[trans-2-(4-Chloro-phenyl)-cyclopropanecarbonyl]-5-fluoro-1,2,3,4-tetrahydro-isoquinolin-8-yl}-4-methoxy-phenyl)-acetic acid]	0.00193
COc1ccc(CC(=O)O)cc1-c1ccc(F)c2c1CN(C(=O)[C@@H]1C[C@H]1c1ccccc1Cl)CC2 (racemic) [Example 3, (±)-(3-{2-[trans-2-(2-Chloro-phenyl)-cyclopropanecarbonyl]-5-fluoro-1,2,3,4-tetrahydro-isoquinolin-8-yl}-4-methoxy-phenyl)-acetic acid]	0.00211
COc1ccc(CC(=O)O)cc1-c1ccc(F)c2c1CN(C(=O)[C@@H]1C[C@H]1c1cccc(Cl)c1)CC2 (racemic) [Example 4, (±)-(3-{2-[trans-2-(3-Chloro-phenyl)-cyclopropanecarbonyl]-5-fluoro-1,2,3,4-tetrahydro-isoquinolin-8-yl}-4-methoxy-phenyl)-acetic acid]	0.00539
COc1ccc(CC(=O)O)cc1-c1ccc(F)c2c1CN(C(=O)[C@@H]1C[C@H]1c1ccccc1C)CC2 (racemic) [Example 6, (±)-{3-[5-Fluoro-2-(trans-2-o-tolyl-cyclopropanecarbonyl)-1,2,3,4-tetrahydro-isoquinolin-8-yl]-4-methoxy-phenyl}-acetic acid]	0.00422
COc1ccc(CC(=O)O)cc1-c1ccc(F)c2c1CN(C(=O)CC(c1ccccc1)c1ccc(Cl)cc1)CC2 (racemic) [Example 97, (±)-(3-{2-[3-(4-Chloro-phenyl)-3-phenyl-propionyl]-5-fluoro-1,2,3,4-tetrahydro-isoquinolin-8-yl}-4-methoxy-phenyl)-acetic acid]	0.0481
COc1ccc(CC(=O)O)cc1-c1ccc(F)c2c1CN(C(=O)[C@@H]1C[C@H]1c1ccc(Cl)cc1Cl)CC2 (racemic) [Example 98, (±)-(3-{2-[trans-2-(2,4-Dichloro-phenyl)-cyclopropanecarbonyl]-5-fluoro-1,2,3,4-tetrahydro-isoquinolin-8-yl}-4-methoxy-phenyl)-acetic acid]	0.0101
COc1ccc(CC(=O)O)cc1-c1ccc(F)c2c1CN(C(=O)C(C)Cc1ccccc1)CC2 (racemic) [Example 109, (±)-{3-[5-Fluoro-2-(2-methyl-3-phenyl-propionyl)-1,2,3,4-tetrahydro-isoquinolin-8-yl]-4-methoxy-phenyl}-acetic acid]	0.0289
COc1ccc(CC(=O)O)cc1-c1ccc(F)c2c1CN(C(=O)C1CCc3ccccc31)CC2 (racemic) [Example 112, (±)-{3-[5-Fluoro-2-(indane-1-carbonyl)-1,2,3,4-tetrahydro-isoquinolin-8-yl]-4-methoxy-phenyl}-acetic acid]	0.202
COc1ccc(CC(=O)O)cc1-c1ccc(F)c2c1CN(C(=O)C1COc3ccccc3C1)CC2 (racemic) [Example 113, (±)-{3-[2-(Chroman-3-carbonyl)-5-fluoro-1,2,3,4-tetrahydro-isoquinolin-8-yl]-4-methoxy-phenyl}-acetic acid]	0.0186
COc1ccc(CC(=O)O)cc1-c1ccc(F)c2c1CN(C(=O)C1CCc3ccccc3O1)CC2 (racemic) [Example 115, (±)-{3-[2-(Chroman-2-carbonyl)-5-fluoro-1,2,3,4-tetrahydro-isoquinolin-8-yl]-4-methoxy-phenyl}-acetic acid]	0.173
COc1ccc(C(C)C(=O)O)cc1-c1ccc(F)c2c1CN(C(=O)[C@@H]1C[C@H]1c1ccccc1)CC2 (mixture of isomers) [Example 120, (±)-2-{3-[5-Fluoro-2-((1R,2R)-2-phenyl-cyclopropanecarbonyl)-1,2,3,4-tetrahydro-isoquinolin-8-yl]-4-methoxy-phenyl}-propionic acid]	0.00856
COc1ccc(CC(=O)O)cc1-c1ccc(F)c2c1CN(C(=O)C1CC(=O)c3ccccc31)CC2 (racemic) [Example 122, (±)-{3-[5-Fluoro-2-(3-oxo-indane-1-carbonyl)-1,2,3,4-tetrahydro-isoquinolin-8-yl]-4-methoxy-phenyl}-acetic acid]	0.862
COc1ccc(C(C)C(=O)O)cc1-c1ccc(F)c2c1CN(C(=O)OCc1ccccc1F)CC2 (racemic) [Example 140, (±)-8-[5-(1-Carboxy-ethyl)-2-methoxy-phenyl]-5-fluoro-3,4-dihydro-1H-isoquinoline-2-carboxylic acid 2-fluoro-benzyl ester]	0.0626
COc1ccc(C(C)C(=O)O)cc1-c1ccc(F)c2c1CN(C(=O)OCc1ccccc1)CC2 (racemic) [Example 171, (±)-8-[5-(1-Carboxy-ethyl)-2-methoxy-phenyl]-5-fluoro-3,4-dihydro-1H-isoquinoline-2-carboxylic acid benzyl ester]	0.0212
CCOc1ccc(CC(=O)O)cc1-c1ccc(F)c2c1CN(C(=O)CC1CCc3ccccc31)CC2 (racemic) [Example 219]	0.0091
CCOc1cc(CC(=O)O)ccc1-c1ccc(F)c2c1CN(C(=O)CC1COCc3ccccc31)CC2 (racemic) [Example 232]	0.0006
CCOc1cc(CC(=O)O)ccc1-c1ccc(F)c2c1CN(C(=O)CC1CCc3ccccc31)CC2 (racemic) [Example 233]	0.0011
COc1ccc(CC(=O)O)cc1-c1ccc(F)c2c1CN(C(=O)CC1(C)CCCc3ccccc31)CC2 (racemic) [Example 239]	0.0284
COc1ccc(CC(=O)O)cc1-c1ccc(F)c2c1CN(C(=O)C1CCc3cccc(OC)c3C1)CC2 (racemic) [Example 241]	0.0083
COc1ccc(CC(=O)O)cc1-c1ccc(F)c2c1CN(C(=O)CC1COc3ccccc3C1)CC2 (racemic) [Example 242]	0.0027
COc1ccc(CC(=O)O)cc1-c1ccc(F)c2c1CN(C(=O)CC1CCOc3ccc(F)cc31)CC2 (racemic) [Example 244]	0.158
COc1ccc(CC(=O)O)cc1-c1ccc(F)c2c1CN(C(=O)CC(C)C1CC1)CC2 (racemic) [Example 245]	0.399
COc1ccc(CC(=O)O)cc1-c1ccc(F)c2c1CN(C(=O)CC1CCOc3c(F)cccc31)CC2 (racemic) [Example 246]	0.0223
COc1ccc(CC(=O)O)cc1-c1ccc(F)c2c1CN(C(=O)CC1CCCc3ccncc31)CC2 (racemic) [Example 247, hydrochloride]	0.484

Next, values leading:

IC50 [µM]	SMILES
0.0498	COc1ccc(CC(=O)O)cc1-c1ccc(F)c2c1CN(C(=O)CC(C)(O)c1ccccc1)CC2 (racemic) [Example 256]
0.587	COc1ccc(CC(=O)O)cc1-c1ccc(F)c2c1CN(C(=O)CC1c3ccccc3CCN1C)CC2 (racemic) [Example 259]
0.253	COc1ccc(CC(=O)O)cc1-c1ccc(F)c2c1CN(C(=O)CC(c1ccccc1)C(C)C)CC2 (racemic) [Example 264]
0.0327	COc1ccc(CC(=O)O)cc1-c1ccc(F)c2c1CN(C(=O)CC(C)c1cccnc1)CC2 (racemic) [Example 266, (±)-{3-[5-Fluoro-2-(3-pyridin-3-yl-butyryl)-1,2,3,4-tetrahydro-isoquinolin-8-yl]-4-methoxy-phenyl}-acetic acid formiate]
0.0861	COc1ccc(CC(=O)O)cc1-c1ccc(F)c2c1CN(C(=O)CC(C)c1ccncc1)CC2 (racemic) [Example 267, (±)-{3-[5-Fluoro-2-(3-pyridin-4-yl-butyryl)-1,2,3,4-tetrahydro-isoquinolin-8-yl]-4-methoxy-phenyl}-acetic acid formiate]
0.0636	CCC(CC(=O)N1CCc2c(F)ccc(-c3cc(CC(=O)O)ccc3OC)c2C1)c1ccccc1 (racemic) [Example 268]
0.0253	COc1ccc(CC(=O)O)cc1-c1ccc(F)c2c1CN(C(=O)CC1COc3ccccc31)CC2 (racemic) [Example 270]
0.262	COc1ccc(CC(=O)O)cc1-c1ccc(F)c2c1CN(C(=O)C1CCOc3ccccc31)CC2 (racemic) [Example 272]
0.683	COc1ccc(CC(=O)O)cc1-c1ccc(F)c2c1CN(C(=O)C1OCCc3ccccc31)CC2 (racemic) [Example 273]
0.0582	COc1ccc(CC(=O)O)cc1-c1ccc(F)c2c1CN(C(=O)C1Cc3ccccc3CO1)CC2 (racemic) [Example 274]
0.0034	CCOc1ccc(CC(=O)O)cc1-c1ccc(F)c2c1CN(C(=O)CC(C)c1ccccc1F)CC2 (racemic) [Example 280]
0.0275	CCOc1ccc(CC(=O)O)cc1-c1ccc(F)c2c1CN(C(=O)CC(C)c1cnccn1)CC2 (racemic) [Example 281]
0.0022	CCOc1ccc(CC(=O)O)cc1-c1ccc(F)c2c1CN(C(=O)CC(C)c1ccccc1OC)CC2 (racemic) [Example 282]
0.0072	CCOc1ccc(CC(=O)O)cc1-c1ccc(F)c2c1CN(C(=O)CC(C)c1nccs1)CC2 (racemic) [Example 283]
0.0024	CCOc1ccc(CC(=O)O)cc1-c1ccc(F)c2c1CN(C(=O)CC1CC(C)(C)Oc3ncccc31)CC2 (racemic) [Example 284]
